Data on one substance can be found in patent US8895509B2, “MIR-200 family induces mesenchymal-to-epithelial transition (MET) in ovarian cancer cells” (Georgia Tech Research Corporation, priority 2010, dated 2014).

Assay type in all cases: cell-based, human
Series [1] concerns HEY cells. The series is described as follows: qRT-PCR of EMT marker mRNAs in transfected HEY cells. As for the experimental part: 6×10^4 cells per well were seeded in 24-well plates. After 24 h, cells were transfected with 30 nM of miR-429 and miR-320 miRNA oligonucleotides (Ambion, Austin, Tex.) using Lipofectamine 2000 reagent (Invitrogen, Carlsbad, Calif.). The Ambion Pre-miRNA Precursor Negative Control was used as a control. Three days after transfection, cells were split and transfected again. This process was repeated every 3 days until 21 days when cells were assayed for response.
Total RNA was extracted from cells using the miRVana miRNA isolation kit (Ambion). MicroRNA expression was carried our using TaqMan microRNA assays (Applied Biosystems, Carlsbad, Calif.) with human U6 as the endogenous control. For mRNA quantitation, RNA (4.0 μg) was reversed transcribed into cDNA using the Superscript III First-strand Synthesis System (Invitrogen) according to the manufacturer's instructions using sequence specific primers. Real-time PCR was performed using Power SYBR Green PCR Master Mix (Bio-Rad, Hercules, Calif.) and data normalized to glyceraldehydes-3-phosphate-dehydrogenase (GAPDH). Each transfection experiment was carried out in triplicate with 3 PCR reactions performed per transfection. The PCR results were analyzed by 1-way Analysis of Variance (ANOVA) and the Newman-Keuls-Student t test. A p value of <0.05 was considered significant.

The subject of series [2] is HEY cells. As to the kind of experiment: serum-induced migration, trans-well chamber assay. The conditions noted are these: miR-429 transfected HEY cells vs negative control. As for the experimental part:
(§1) For the migration and invasion assays, 2.5×10^3 overnight serum starved cells in serum-free media were added to the top chambers of trans-well plates (8 μm pore size; BD, Franklin Lakes, N.J.) and media containing 10% fetal calf serum (FCS) were added to the bottom chambers. After 8-12 h, the non-migrating (top) cells were removed and the invading (bottom) cells were counted. All assays were done in triplicate. For the wound-healing assay, 2.5×10^5 cells were seeded into six-well plates. After 24 h, a wound was incised, detached cells removed and fresh media added. Photos were taken after 8 hrs to monitor the invasion of cells into the wounded area.
(§2) To further explore the effects of ectopic expression of miR-429 in HEY cells, we looked for changes in cellular functions frequently associated with EMT. For example, ovarian and other types of cancer cells undergoing EMT typically display increased motility/migration and invasiveness. […] Relative invasiveness was also measured by monitoring serum-induced invasion through a matrigel layer.

Series [3] concerns HEY cells. As to the kind of experiment: serum-induced invasion through a matrigel layer. The conditions noted are these: miR-429 transfected HEY cells vs negative control. As for the experimental part:
as §1, §2

“Also recorded” adds a separate entry of the source.

For the substance “miR-429: miR-200 family member; mature miRNA UAAUACUGUCUGGUAAAACCGU (SEQ ID NO: 6); miRNA oligonucleotide (Ambion) transfected at 30 nM (listed as RNA, chemistry not given here; listed as Homo sapiens) [miR-200 family member; miRNA oligonucleotide (Ambion) transfected at 30 nM]”, in the series on HEY cells [1], the “levels of E-cadherin mRNA” value is reported as “concomitant increase; also recorded: significantly higher”, the “levels of FN1 (fibronectin) mRNA” value was “No significant difference”, the “levels of N-cadherin mRNA” value is reported as “No significant difference” and the “levels of VIM (vimentin) mRNA” value is given as “No significant difference”. For the same substance, in the series on HEY cells [1], the “levels of ZEB1 mRNA” value is “significant decrease; also recorded: significantly lower” and the “levels of ZEB2 mRNA” value is reported as “significant decrease; also recorded: significantly lower”. Besides, in the series on HEY cells [2], the “migration through pores, slower than negative controls” value is given as > 2 fold. The “decrease in invasion relative to controls” value in the series on HEY cells [3] was > 5 fold.
